Values belong to the compound of their own block, whether it stands above or below them.
Key:
[1] = test system: α-L-fucosidase; assay: Plasma protocol: labeled ethanol released in headspace of plasma after adding probe; assay type: biochemical, human
Procedure: (§1) The plasma (approximately […]) is extracted and stored at −20° C. until analysis. An aliquot of 25 μL of plasma is sampled and inserted into a […] with an insert. This biological sample is added to 50 μL of acetate buffer solution (pH 5), protease inhibitor (1×) and 25 μL probe D5-ethyl-β-D-glucuronide at […]. After hermetic closure and agitation to the vortex of the vial, an SPME (SPME in semi-polar phase of the Car/PDMS, 1 cm long and 75 μm thick type with a 24 ga needle; Supelco) of the gas phase above the sample of a duration of 30 mi is carried out after 2 h, 4 h and 7 h of reaction. Each kinetic point requires a vial reaction, and is carried out in duplicate. The VOCs trapped on the SPME fiber are then analyzed by G-TQMS. GC-TMS detection of the ethanol isotopes (thus including ethanol-D5) is carried out with gas chromatography coupled to a triple quadrupole equipped with an E1 source (TSQ 9000, Thermo Fisher Scientific). The system is controlled by the software TSQ 9000 and the results are analyzed with the Xcalibur software (Thermo Fisher Scientific).
(§2) In order to verify the diagnostic efficacy of this cocktail, it was tested on samples of plasma taken from 4 patients suffering from breast cancer and 3 patients with lung cancer. These patients were diagnosed, but had at the time of sampling not yet received treatment suited to their pathological condition.
(§3) After adding the 4 probes (according to the above protocol), the quantity of the 4 isotopes of the ethanol released above the samples of the patients was measured over time. The responses of each isotope were compared with those obtained when the cocktail was added to plasmas of 4 healthy patients. An experimental blank was also carried out each day of analysis. These blanks correspond to negative controls wherein the cocktail was added, whereas none of the 4 enzymes was present therein (FIG. 9).
(§4) According to the plasma protocol described above, the probes were used to detect the six enzymatic activities in these samples. To summarize, an aliquot of 25 μL of plasma will be sampled and inserted into a 2 mL vial with an insert. This biological sample was added from 61.4 μL buffer solution (pH 5), 3.6 μL of protease inhibitor (1×) and 10 μL of one or the other of the cocktails. After hermetic closure and agitation to the vortex of the vial, an SPME (SPME in semi-polar phase of the Car/PDMS, 1 cm long and 75 μm thick type with a 24 ga needle, Supelco) of the gas phase above the sample of a duration of 30 min will be carried out after 2 h, 4 h and 7 h of reaction. Each kinetic point requires a vial reaction, and was carried out in duplicate. The VOCs trapped on the SPME fiber are then analyzed by GC-TQMS according to the parameters defined in Tables 4 and 5. […]

[2] = biological target: T1, β-D-galactosidase (Homo sapiens, UniProt P16278); assay: as above; assay type: biochemical; conditions: for discernment between healthy patients and cancer patients: cocktail of 4 probes, plasma of breast and lung cancer patients vs 4 healthy
T1 construct: from tissue; host or cells: human blood plasma
T1 sequence (P16278 29-677): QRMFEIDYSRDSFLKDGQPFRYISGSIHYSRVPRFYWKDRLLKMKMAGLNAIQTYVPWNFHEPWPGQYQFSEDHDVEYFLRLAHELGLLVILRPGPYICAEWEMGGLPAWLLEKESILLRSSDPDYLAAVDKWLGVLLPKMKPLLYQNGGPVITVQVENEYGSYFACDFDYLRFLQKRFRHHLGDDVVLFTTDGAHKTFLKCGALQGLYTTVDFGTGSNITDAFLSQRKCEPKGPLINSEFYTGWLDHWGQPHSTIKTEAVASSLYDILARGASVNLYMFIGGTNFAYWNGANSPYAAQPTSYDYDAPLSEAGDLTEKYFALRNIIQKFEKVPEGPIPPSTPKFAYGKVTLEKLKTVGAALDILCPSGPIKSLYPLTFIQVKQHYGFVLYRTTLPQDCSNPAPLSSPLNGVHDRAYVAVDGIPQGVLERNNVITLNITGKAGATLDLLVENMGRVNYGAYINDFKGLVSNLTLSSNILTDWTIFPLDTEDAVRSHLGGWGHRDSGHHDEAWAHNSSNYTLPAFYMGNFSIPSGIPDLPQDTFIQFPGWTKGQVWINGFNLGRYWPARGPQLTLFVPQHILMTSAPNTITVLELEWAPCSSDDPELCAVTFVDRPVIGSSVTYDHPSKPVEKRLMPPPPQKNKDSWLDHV
Procedure: as §1, §2
as §3, with “These blanks correspond to negative controls wherein the cocktail was added, whereas none of the 4 enzymes was present therein (FIG. 9).” left out
(§5) According to the plasma protocol described above, the probes were used to detect the six enzymatic activities in these samples. […] The VOCs trapped on the SPME fiber are then analyzed by GC-TQMS according to the parameters defined in Tables 4 and 5. […]

[3] = test system: KB tumors (tumor xenograft, tumor cells of the nasopharynx KB); assay: In vivo test of cocktail of 4 probes: ethanol isotopes exhaled after i.v. injection; design: species or system mouse; conditions: 15 days after implantation; 1 h after i.v. injection
Procedure: In the context of this study, the quantity of 4 expired isotopes by mouse models carrying a tumor xenograft (tumor cells of the nasopharynx KB; n=6) was compared to that exhaled by healthy animals (n=6) after i.v. injection of the cocktail.
The concentration of the 4 probes to be injected was determined beforehand according to a precise experimental plan having the objective of determining the amount of each probe inducing a minimum ethanol response in healthy animals (signal reaching a low or even zero basal level). In this context, the healthy animals received increasing doses of the 4 probes ([…] at 100 μg·kg^−1). The animals were then placed in a hermetic cage for 1 h. The amount of each ethanol isotope present in the breath of the animals was then measured for 30 min via an SPME sample, then a GC-TQMS analysis.
Once the i.v. doses are set, the cocktail was injected into healthy mice and diseased mice after 12 and then 15 days of implantation of the xenograft. The amount of the ethanol isotopes exhaled by the animals was measured 1 h after injection of the cocktail (FIG. 10). A negative control on two mice (healthy and diseased) was carried out. This control consisted of measuring the quantity of 4 isotopes of ethanol in the air surrounding the mice which had not received the cocktail. Ethanol-D5, ethanol-D4 and ethanol-^13CD5 were not detected. […]

[4] = biological target: T2, β-glucuronidase (Homo sapiens, UniProt P08236); assay: Reference method: hydrolysis of para-nitrophenol glucuronide, UV detection at 400 nm, on patient plasma; assay type: biochemical; conditions: plasma of cancer and healthy patients
T2 construct: from tissue; host or cells: human blood plasma
T2 sequence (P08236 23-651): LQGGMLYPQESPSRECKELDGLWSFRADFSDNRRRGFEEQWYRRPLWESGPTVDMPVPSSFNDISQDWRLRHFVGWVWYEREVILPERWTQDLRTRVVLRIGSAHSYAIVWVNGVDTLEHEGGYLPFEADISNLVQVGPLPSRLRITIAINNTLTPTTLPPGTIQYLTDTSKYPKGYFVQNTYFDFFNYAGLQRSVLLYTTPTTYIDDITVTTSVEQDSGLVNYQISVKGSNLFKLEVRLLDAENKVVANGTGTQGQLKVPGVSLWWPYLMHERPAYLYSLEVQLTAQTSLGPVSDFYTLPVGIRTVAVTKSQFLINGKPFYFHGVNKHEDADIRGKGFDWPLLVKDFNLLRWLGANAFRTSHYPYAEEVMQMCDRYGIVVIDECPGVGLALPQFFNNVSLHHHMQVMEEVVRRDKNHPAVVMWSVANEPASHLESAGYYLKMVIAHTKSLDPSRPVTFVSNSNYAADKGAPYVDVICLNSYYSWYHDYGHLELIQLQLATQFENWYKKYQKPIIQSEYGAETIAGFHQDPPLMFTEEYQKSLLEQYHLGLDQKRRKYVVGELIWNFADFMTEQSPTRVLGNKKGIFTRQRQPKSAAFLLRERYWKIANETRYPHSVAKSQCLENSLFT
Text: The limit of detection of the enzyme with the probe is between […] (signal to noise 9) and […] (signal to noise 37), which leads to a minimum quantity of detectable enzyme equal to 1.10^−18 mol. This LOD is 100 times lower than the threshold value obtained according to the reference detection method of this same enzyme (Li et al., 2018, Biotechnology Letters, 40, 11 1-118; Xiao et al., 2020, RSC Advances, 10, 22966). This method corresponds to the hydrolysis of para-nitrophenol glucuronide. It was carried out in acetate buffer […], followed by UV detection at 400 nm of the para-nitrophenol (FIG. 2).
Finally, these same plasma samples were tested with the reference method targeting […] (UV detection in the presence of para-nitrophenol; protocol described page 5).

[5] = biological target: T2, β-glucuronidase; assay: Plasma protocol: labeled ethanol released in headspace of plasma after adding probe; assay type: biochemical; conditions: Ethanol-D5; Cocktail 1; 5·10^−4/5·10^−5 mol·L^−1; Splitless
Procedure: as §1
Blood samples were taken by the caregiver associated with the oncological service, then collected and pretreated with the CIC. This study included samples of plasma taken from 11 patients suffering from breast cancer and 11 patients suffering from lung cancer.
These patients were diagnosed, but had at the time of sampling not yet received treatment. Their response was compared to that obtained from the plasma of 4 healthy patients. The results were compared to an experimental blank wherein the probe was added, but the enzyme was not present (FIG. 3). […]
After adding the 4 probes (according to the above protocol), the quantity of the 4 isotopes of the ethanol released above the samples of the patients was measured over time. […]
as §5

[6] = test system: N-acetyl-glucosaminidase; assay: as above; assay type: biochemical, human
Procedure: as §1, §2, §3, §4

[7] = test system: N-acetyl glucosaminidase; assay: Specificity study: hydrolysis of probes by the enzyme; assay type: biochemical
Procedure: (§6) The detection performances of this compound in the presence of ethanol and ethanol-D5 were then verified. […] The detection ranges of ethanol-D5 and ethanol-^13C-D5 were then carried out under SPME sampling conditions developed for biological samples (30 min of sampling at 30° C.). The two isotopes were present in mixtures in solution. The limits of detection obtained are respectively […]. The SPME-GC-TQMS method therefore allows a sharp differentiation of the two isotopes according to their mass fragmentation. An experimental study was then carried out in order to evaluate the affinity of the D5-ethyl-β-D-glucuronide and ^13C-D5-ethyl-N-acetylglucosamine for their respective enzyme (β-glucuronidase and N-acetyl glucosaminidase). For this, the efficacy of hydrolysis of each of these enzymes was studied in the presence of their respective probe (FIG. 6) then in the presence of the substrate probe of its partner (FIG. 7). […] In the presence of the two substrates, each enzyme gives a signal only for the probe specific to it (FIG. 8).

[8] = biological target: β-glucuronidase (Escherichia coli, UniProt P05804); assay: as above; assay type: biochemical
Procedure: as §6

Sequence of β-glucuronidase (Escherichia coli, UniProt P05804) (P05804 whole entry): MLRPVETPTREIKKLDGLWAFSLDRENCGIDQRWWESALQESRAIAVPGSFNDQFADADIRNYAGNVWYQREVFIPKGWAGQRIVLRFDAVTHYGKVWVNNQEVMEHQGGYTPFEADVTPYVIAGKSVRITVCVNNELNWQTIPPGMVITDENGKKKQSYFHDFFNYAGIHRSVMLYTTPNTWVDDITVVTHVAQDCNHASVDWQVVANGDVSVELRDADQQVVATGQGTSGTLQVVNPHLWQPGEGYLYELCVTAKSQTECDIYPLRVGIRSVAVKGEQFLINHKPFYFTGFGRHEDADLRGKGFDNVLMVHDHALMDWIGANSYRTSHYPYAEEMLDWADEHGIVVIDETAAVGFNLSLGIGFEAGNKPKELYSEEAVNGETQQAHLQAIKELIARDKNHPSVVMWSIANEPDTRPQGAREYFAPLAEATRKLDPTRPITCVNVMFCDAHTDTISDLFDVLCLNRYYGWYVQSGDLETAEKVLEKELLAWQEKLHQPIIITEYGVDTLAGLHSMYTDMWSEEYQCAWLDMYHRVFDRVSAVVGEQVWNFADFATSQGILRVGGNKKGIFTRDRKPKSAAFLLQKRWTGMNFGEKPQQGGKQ

Plasma response range (u.a.) ([1]; Ethanol-D4, Cocktail 3, 10^−3/10^−4 mol·L^−1, Splitless): 5000-230000 u.a.
Compound: CCC[C@@H]1C[C@H](C)[C@@H](C)[C@@H](C)[C@@H]1C

Plasma response range (u.a.) ([2]; Ethanol-D2, Cocktail 1, 10^−3/10^−4 mol·L^−1, Splitless): 2000-16000 u.a.
Compound: CCC[C@@H]1C[C@H](CC)[C@H](C)[C@H](C)[C@H]1C

Compound: [2H]C([2H])(C)O[C@@H]1O[C@H](CO)[C@H](O)[C@H](O)[C@H]1O [D2-ethyl-β-D-galactopyranoside]
activation of probe in the microenvironment of KB (nasopharyngeal) tumors, release of ethanol isotope in exhaled air [3]: activated
discernment between healthy patients and cancer patients [2]: does not make it possible to discern healthy patients from cancer patients
discernment between healthy patients and cancer patients ([2]; listed as D2-ethyl-β-d-galactopyranoside): does not make it possible to differentiate healthy patients from breast cancer or lung cancer patients

Compound: O=C(O)[C@H]1O[C@@H](Oc2ccc([N+](=O)[O-])cc2)[C@H](O)[C@@H](O)[C@@H]1O [para-nitrophenol glucuronide]
detection of the enzyme in the same plasma samples by the reference method [4]: not detected in any of the samples

Compound: CCC[C@@H]1C[C@H](C(C)C)[C@@H](C)[C@H](C)[C@H]1C
Plasma response range (u.a.) [5]: 1000-35000 u.a.

Plasma response range (u.a.) ([6]; Ethanol-13CD5, Cocktail 2, 10^−3/10^−4 mol·L^−1, Split 1:15): 10000-300000 u.a.
Compound: C=C(C)C[C@@H]1[C@@H](CCC)C[C@H](CC)[C@@H](C)[C@@H]1C

Compound: ^13C-D5-ethyl-N-acetylglucosamide [^13C-D5-ethyl-N-acetylglucosamine]
discernment between healthy patients and cancer patients ([6]; cocktail of 4 probes, plasma of breast and lung cancer patients vs 4 healthy): allow clear discernment between healthy patients and cancer patients
hydrolysis of probe by N-acetyl glucosaminidase (labeled ethanol signal) [7]: has hydrolyzed its own probe
hydrolysis of probe by β-glucuronidase (labeled ethanol signal) [8]: does not hydrolysis

Compound: [2H]C(O[C@@H]1O[C@@H](C)[C@@H](O)[C@@H](O)[C@@H]1O)C([2H])([2H])[2H] (stereo partly drawn) [D4-ethyl-1-α-L-fucopyranoside]
discernment between healthy patients and cancer patients ([1]; cocktail of 4 probes, plasma of breast and lung cancer patients vs healthy): allow clear discernment between healthy patients and cancer patients
